This is an account of results in ChEMBL document CHEMBL5143716, “Design, Synthesis, and Optimization of Macrocyclic Peptides as Species-Selective Antimalaria Proteasome Inhibitors” (J Med Chem, 2022).

Molecules are shown by their SMILES. ≈ marks a conversion by molar mass, not a printed value.

A short description of data set [1]: Kinetic solubility of compound in PBS at pH 6.8 incubated for 24 hrs by UPLC/MS analysis. It counts as physicochemical. As to conditions: read-out: Kinetic_solubility.
In data set [2] the test system is human MDR1 (P-gp). The data set is described as follows: Apparent permeability across apical to basolateral side in pig LLC-PK1 cells expressing human MDR1 at 10 uM measured after 60 mins by LC/MS/MS analysis. It counts as ADME, cell-based, Sus scrofa.
Data set [3] can be described thus: Permeability of the compound in PRISMA HT buffer at pH 7.4 at 10 uM incubated for 3 hrs by PAMPA based LC/MS/MS analysis. It counts as ADME. The conditions noted are these: read-out: permeability.
Data set [4] can be described thus: AUC in mouse at […], iv administered as cassette dose. It counts as ADME, organism-based. Also noted: dose 0.25 mg/kg, route iv. As to conditions: in vivo.
Data set [5] is described as follows: Hepatic blood flow in mouse at […], iv administered as cassette dose. It counts as ADME, organism-based. The conditions noted are these: in vivo, dose 0.25 mg/kg.

Take `Cc1ccc(CNC(=O)[C@@H]2Cc3cccc(c3)Oc3cccc(c3)C[C@H](N)C(=O)N[C@@H](CCc3ccccc3)C(=O)N2)cc1`: in data set [1], the solubility kinetic at 24 h is below 1.6 µg/mL. Besides, in data set [2], the apparent permeability from apical to basolateral (Papp A→B) at 1 h, 10 µM is above 0.29 ×10⁻⁶ cm/s.

For `O=C(NC1CCCC1)[C@@H]1CCCCOc2cccc(c2)C[C@H](N2CCCC2=O)C(=O)N[C@@H](CCN2CCOCC2)C(=O)N1`, the solubility kinetic at 24 h in data set [1] was above 130 µg/mL. Also, in data set [2], the Papp A→B at 1 h, 10 µM was above 0.2 ×10⁻⁶ cm/s. The Papp at 3 h, 10 µM in data set [3] came out at 1.5 ×10⁻⁶ cm/s.

As to `CN[C@H]1Cc2cccc(c2)OCCCC[C@@H](C(=O)NC2CCCC2)NC(=O)[C@H](CCN2CCOCC2)NC1=O`, the solubility kinetic at 24 h in data set [1] was above 140 µg/mL. Further, the apparent permeability from apical to basolateral (Papp A→B) at 1 h, 10 µM in data set [2] is above 0.2 ×10⁻⁶ cm/s.

On to `O=C(NC1CCCC1)[C@@H]1CCCCOc2cccc(c2)C[C@H](N2CCCC2=O)C(=O)N[C@@H](CCc2ccccc2)C(=O)N1`, for which, in data set [1], the solubility kinetic at 24 h was 100 µg/mL (≈ 170 µM). Also, the apparent permeability from apical to basolateral (Papp A→B) at 1 h, 10 µM in data set [2] was found to be 5.7 ×10⁻⁶ cm/s. The Papp at 3 h, 10 µM in data set [3] worked out at 15.1 ×10⁻⁶ cm/s.

With `O=C(NCC(F)(F)F)[C@@H]1COCCOc2cccc(c2)C[C@H](N2CCCC2=O)C(=O)N[C@@H](CCc2ccccc2)C(=O)N1`, in data set [1], the solubility kinetic at 24 h was below 130 µg/mL. Further, in data set [3], the Papp at 3 h, 10 µM turned out to be 12 ×10⁻⁶ cm/s.

As to `O=C(NC1(C(F)(F)F)CC1)[C@@H]1CCCCOc2cccc(c2)C[C@H](N2CCCC2=O)C(=O)N[C@@H](CCc2ccccc2)C(=O)N1`, the solubility kinetic at 24 h in data set [1] amounted to 31 µg/mL (≈ 49.3 µM). Further, the Papp A→B at 1 h, 10 µM in data set [2] was 4.4 ×10⁻⁶ cm/s. Further, the Papp at 3 h, 10 µM in data set [3] was found to be 14.5 ×10⁻⁶ cm/s.

As for `CC(=O)N[C@H]1Cc2cccc(c2)Oc2cccc(c2)C[C@@H](C(=O)NCC(F)(F)F)NC(=O)[C@H](CCc2ccccc2)NC1=O`, the solubility kinetic at 24 h in data set [1] is below 1.4 µg/mL. In data set [2], the Papp A→B at 1 h, 10 µM was above 0.077 ×10⁻⁶ cm/s.

Take `O=C(NCC(F)(F)F)[C@@H]1CCCCOc2cccc(c2)C[C@H](N2CCCC2=O)C(=O)N[C@@H](CCc2ccccc2)C(=O)N1`: the solubility kinetic at 24 h in data set [1] was 76 µg/mL (≈ 126 µM). In data set [2], the Papp A→B at 1 h, 10 µM is 5.3 ×10⁻⁶ cm/s. Also, in data set [3], the Papp at 3 h, 10 µM came out at 18.7 ×10⁻⁶ cm/s. For the same molecule, the AUC in data set [4] was 0.6 ng·h/mL. This molecule yielded a QH in data set [5] of 93.33 mL/min/kg.

As for `O=C1N[C@H](c2nnc(C(F)(F)F)o2)CCCCOc2cccc(c2)C[C@H](N2CCCC2=O)C(=O)N[C@H]1CCc1ccccc1`, the solubility kinetic at 24 h in data set [1] was 6.2 µg/mL (≈ 10.1 µM). Further, the Papp A→B at 1 h, 10 µM in data set [2] was 1.1 ×10⁻⁶ cm/s. Also, in data set [3], the Papp at 3 h, 10 µM was 16 ×10⁻⁶ cm/s.

On to `CN(C)[C@H]1Cc2cccc(c2)OCCCC[C@@H](C(=O)NC2CCCC2)NC(=O)[C@H](CCN2CCOCC2)NC1=O`, for which the solubility kinetic at 24 h in data set [1] is above 130 µg/mL. Also, in data set [2], the Papp A→B at 1 h, 10 µM was 0.12 ×10⁻⁶ cm/s. In data set [3], the Papp at 3 h, 10 µM worked out at 2 ×10⁻⁶ cm/s.

As to `O=C(NCC1CC1)[C@@H]1CCCCOc2cccc(c2)C[C@H](N2CCCC2=O)C(=O)N[C@@H](CCc2ccccc2)C(=O)N1`, the solubility kinetic at 24 h in data set [1] is 49 µg/mL (≈ 85.3 µM). In data set [2], the apparent permeability from apical to basolateral (Papp A→B) at 1 h, 10 µM was 6.8 ×10⁻⁶ cm/s. Moreover, in data set [3], the Papp at 3 h, 10 µM was determined as 10.3 ×10⁻⁶ cm/s.

On to `O=C(NCC(F)F)[C@@H]1CCCCOc2cccc(c2)C[C@H](N2CCCC2=O)C(=O)N[C@@H](CCc2ccccc2)C(=O)N1`, for which the solubility kinetic at 24 h in data set [1] was 35 µg/mL (≈ 59.9 µM). For the same molecule, in data set [2], the Papp A→B at 1 h, 10 µM was above 1.1 ×10⁻⁶ cm/s. Also, the Papp at 3 h, 10 µM in data set [3] is 7.2 ×10⁻⁶ cm/s.

In the case of `O=C(NCC(F)(F)F)[C@@H]1Cc2cccc(c2)Oc2cccc(c2)C[C@H](N2CCCC2=O)C(=O)N[C@@H](CCc2ccccc2)C(=O)N1`, the solubility kinetic at 24 h in data set [1] is 3.8 µg/mL (≈ 5.97 µM).

As to `Cn1cc(CNC(=O)[C@@H]2CCCCOc3cccc(c3)C[C@H](N3CCCC3=O)C(=O)N[C@@H](CCc3ccccc3)C(=O)N2)cn1`, in data set [1], the solubility kinetic at 24 h is above 120 µg/mL. In addition, the apical-to-basolateral permeability (Papp A→B) at 1 h, 10 µM in data set [2] is above 0.6 ×10⁻⁶ cm/s. Besides, in data set [3], the Papp at 3 h, 10 µM was 1.1 ×10⁻⁶ cm/s.

Turning to `CC(=O)N[C@H]1Cc2cccc(c2)Oc2cccc(c2)C[C@@H](C(=O)NCc2ccc(C)cc2)NC(=O)[C@H](CCc2ccccc2)NC1=O`, in data set [2], the Papp A→B at 1 h, 10 µM is above 3.4 ×10⁻⁶ cm/s. The Papp at 3 h, 10 µM in data set [3] was 2.2 ×10⁻⁶ cm/s.

As for `O=C(NC1CCCC1)[C@@H]1CCCCOc2cccc(c2)C[C@H](N2CCC2)C(=O)N[C@@H](CCN2CCOCC2)C(=O)N1`, the solubility kinetic at 24 h in data set [1] was above 140 µg/mL. In data set [2], the apical-to-basolateral permeability (Papp A→B) at 1 h, 10 µM was above 0.2 ×10⁻⁶ cm/s.

On to `CC1(C)Cc2cccc(c2)OCCCC[C@@H](C(=O)NC2CCCC2)NC(=O)[C@H](CCN2CCOCC2)NC1=O`, for which the solubility kinetic at 24 h in data set [1] amounted to 90 µg/mL (≈ 166 µM). For the same molecule, in data set [2], the Papp A→B at 1 h, 10 µM came out at 3.5 ×10⁻⁶ cm/s. For the same molecule, in data set [3], the Papp at 3 h, 10 µM is 26.9 ×10⁻⁶ cm/s.

For `O=C(NC1CCCC1)[C@@H]1CCCCOc2cccc(c2)C[C@H](N2CCCC2=O)C(=O)N[C@@H](CCN2CCC(F)(F)CC2)C(=O)N1`, in data set [1], the solubility kinetic at 24 h is above 130 µg/mL. Moreover, in data set [2], the Papp A→B at 1 h, 10 µM worked out at 4 ×10⁻⁶ cm/s. In data set [3], the Papp at 3 h, 10 µM turned out to be 13.3 ×10⁻⁶ cm/s.

As to `O=C(NC1CCCC1)[C@@H]1CCCCOc2cccc(c2)CC2(COC2)C(=O)N[C@@H](CCN2CCOCC2)C(=O)N1`, the solubility kinetic at 24 h in data set [1] amounted to 68 µg/mL (≈ 122 µM). The apparent permeability from apical to basolateral (Papp A→B) at 1 h, 10 µM in data set [2] was above 2.8 ×10⁻⁶ cm/s. Also, the Papp at 3 h, 10 µM in data set [3] turned out to be 8.9 ×10⁻⁶ cm/s.

Regarding `O=C(NC1CCCC1)[C@@H]1CCCCOc2cccc(c2)C[C@H](N2CCCC2=O)C(=O)N[C@@H](COc2ccccc2)C(=O)N1`, the solubility kinetic at 24 h in data set [1] was 20 µg/mL (≈ 33.9 µM). In data set [3], the Papp at 3 h, 10 µM turned out to be 20.8 ×10⁻⁶ cm/s.

Turning to `O=C1N[C@H](c2nnc(C(F)(F)F)[nH]2)CCCCOc2cccc(c2)C[C@H](N2CCCC2=O)C(=O)N[C@H]1CCc1ccccc1`, the solubility kinetic at 24 h in data set [1] was 2 µg/mL (≈ 3.26 µM). Moreover, in data set [2], the Papp A→B at 1 h, 10 µM is above 2.1 ×10⁻⁶ cm/s. The Papp at 3 h, 10 µM in data set [3] was found to be 8.2 ×10⁻⁶ cm/s.

For `O=C(NC1CCCC1)[C@@H]1CCCCOc2cccc(c2)C[C@H](N2CCCC2=O)C(=O)N[C@@H](CCc2ccc(F)cc2)C(=O)N1`, in data set [1], the solubility kinetic at 24 h turned out to be 17 µg/mL (≈ 28 µM). Also, the Papp A→B at 1 h, 10 µM in data set [2] amounted to 4.5 ×10⁻⁶ cm/s. Moreover, in data set [3], the Papp at 3 h, 10 µM was determined as 21.2 ×10⁻⁶ cm/s.
